Read-outs that look alike come from different tables or passages of the source. Marks after values point to notes of the source that are not given here.
Columns and labels:
[1] = test system: SW-872 liposarcoma cells; assay: Antiproliferative activity, resazurin assay, SW-872; assay type: cell-based; conditions: Homo sapiens, read-out: Drug IC50 Values
Protocol: (§1) The growth inhibitory potency of 2-pyrrolino-5-imino-13-deoxydoxorubicin IV, 5-imino-13-deoxydoxorubicin III, and doxorubicin I against several cancer cell lines was evaluated using the resazurin fluorescence assay. The growth inhibitory potency was measured as the inhibitory concentration of a compound required to inhibit cell growth by 50% (IC50). The cancer cells were seeded into 96-well plates (0.5-1×10^4 cells/well) with appropriate media, incubated with drug for 48 hours, and then treated with resazurin (final concentration, 0.01%), a non-fluorescent blue dye, for 24 hours. The fluorescence (Ex560 nm/Em590 nm) was recorded using a BioTek SynergyHT multiwell plate fluorimeter. Healthy cells metabolize resazurin to resorufin, a fluorescent pink dye. Thus, fluorescence is a proxy for cell viability and used to determine the effect of cytotoxic agents on cell cultures. […] The activity of 2-pyrrolino-5-imino-13-deoxydoxorubicin IV was also greater than that of doxorubicin I, with IC50 values that were, on average, lower than those of doxorubicin I.

[2] = test system: RD rhabdomyosarcoma cells; assay: Antiproliferative activity, resazurin assay, RD; assay type: cell-based; conditions: Homo sapiens, Rhabdomyosarcoma cell, read-out: Drug IC50 Values
Protocol: as §1

[3] = test system: GCT histiocytoma cells; assay: Antiproliferative activity, resazurin assay, GCT; assay type: cell-based; conditions: Homo sapiens, read-out: Drug IC50 Values
Protocol: as §1

[4] = test system: HeLa cervical adenocarcinoma cells; assay: Antiproliferative activity, resazurin assay, HeLa; assay type: cell-based; conditions: Homo sapiens, read-out: Drug IC50 Values
Protocol: as §1

[5] = test system: T47D breast ductal carcinoma cells; assay: Antiproliferative activity, resazurin assay, T47D; assay type: cell-based; conditions: Homo sapiens, read-out: Drug IC50 Values
Protocol: as §1

[6] = test system: human cancer cell lines; assay: Antiproliferative activity, average over the five cancer cell lines of Table 1; assay type: cell-based; conditions: for times more potent against cancer cells than a normal non-cancer cell line, on average: HADF IC50 / average cancer cell IC50; for IC50: Homo sapiens, read-out: Average Drug IC50 Values
Protocol: as §1
Even more unexpected and not predicted was that the selectivity of compound IV for cancer cells versus normal cells is shown to be 40 times greater compared to compound I (doxorubicin).

[7] = test system: HADF human adult dermal fibroblasts; assay: Cytotoxicity against normal cell line, resazurin assay; assay type: cell-based; conditions: for IC50: Fibroblast, read-out: Drug IC50 Values
Protocol: as §1
The compounds were also tested against a normal non-cancer cell line, normal human fibroblasts (HADF).

[8] = test system: MES-SA cells; assay: Antiproliferative activity, doxorubicin sensitive uterine fibrosarcoma; assay type: cell-based; conditions: Homo sapiens, read-out: Drug IC50 Values
Protocol: as §1
(§2) The compounds were further tested against a uterine fibrosarcoma cell line, MES-SA, sensitive to doxorubicin (compound I), and against a uterine fibrosarcoma cell line MES-SA/MX2 resistant to doxorubicin.

[9] = test system: MES-SA/MX2 cells; assay: Antiproliferative activity, doxorubicin resistant uterine fibrosarcoma; assay type: cell-based, human; conditions: for IC50: Homo sapiens, read-out: Drug IC50 Values; for potency in the resistant fibrosarcoma strain compared to the sensitive strain (times less potent): MES-SA/MX2 versus MES-SA
Protocol: as §1, §2

[10] = test system: HT1080-luc fibrosarcoma cells; assay: Inhibitory potency against HT1080-luc in vitro; assay type: cell-based; conditions: Homo sapiens, read-out: IC50±SEM
Protocol: The growth inhibitory potency of 2-pyrrolino-5-imino-13-deoxydoxorubicin IV, 5-imino-13-deoxydoxorubicin III, and doxorubicin I against several cancer cell lines was evaluated using the resazurin fluorescence assay. The growth inhibitory potency was measured as the inhibitory concentration of a compound required to inhibit cell growth by 50% (IC50). The cancer cells were seeded into 96-well plates (0.5-1×10^4 cells/well) with appropriate media, incubated with drug for 48 hours, and then treated with resazurin (final concentration, 0.01%), a non-fluorescent blue dye, for 24 hours. The fluorescence (Ex560 nm/Em590 nm) was recorded using a BioTek SynergyHT multiwell plate fluorimeter. Healthy cells metabolize resazurin to resorufin, a fluorescent pink dye. Thus, fluorescence is a proxy for cell viability and used to determine the effect of cytotoxic agents on cell cultures. […]
To assess in vivo drug activity against a primary tumor growth model of sarcoma, an experiment was conducted using commercially available human HT1080 fibrosarcoma cells engineered to express luciferase (HT1080-luc; PerkinElmer). The inhibitory potency of Compound III and Compound IV against HT1080-luc was measured in vitro by the methods described in Example 2. […]

[11] = test system: HT1080-luc tumors; assay: Primary tumor growth model of sarcoma in SCID mice; assay type: in vivo; conditions: for Averge tumor weight / tumor weight reduced / tumor progression by in vivo bioluminescent imaging: day 20; for Averge tumor weight: SCID mice; for tumor weight reduced: 2.4 mg/kg, relative to PBS; for tumor progression by in vivo bioluminescent imaging: relative to PBS-only treatment
Protocol: To assess in vivo drug activity against a primary tumor growth model of sarcoma, an experiment was conducted using commercially available human HT1080 fibrosarcoma cells engineered to express luciferase (HT1080-luc; PerkinElmer). The inhibitory potency of Compound III and Compound IV against HT1080-luc was measured in vitro by the methods described in Example 2. […] HT1080-luc tumors were initiated in 6 week old female SCID mice (Harlan) by orthotopic subcutaneous injection of 1×10^6 cells in each flank. After allowing the tumors to establish for 6 days, mice were randomized to one of three treatment groups and treated three times per week by intraperitoneal injection with compound IV or compound III, 2.4 mg/kg in physiological buffered saline (PBS), or vehicle (PBS). […] At day 20 tumor weight was reduced 53% with compound IV while reduced only 36% with compound III at the same given dose. […] This is in contrast to 2-pyrrolinodoxorubicin which can be lethal at its effective dose range.

[12] = test system: HT1080 fibrosarcoma cells; assay: cells; assay type: cell-based; conditions: for IC50 / IC10: 48 hours; for IC10: concentration inhibiting cell growth by 10%
Protocol: A fibrosarcoma cell line, HT1080, was used to measure the IC50's and IC10's (the inhibitory concentration of a compound required to inhibit cell growth by 10%) of Compound IV and Compound III, as described in Example 2. An IC50 concentration represents a therapeutic amount of compound. […] The cells were passaged and seeded at 5,000 cells/well on 96-well plates and the plates were incubated for 24 hours. After incubation, the media was changed and the IC50's and IC10's of compound IV and compound III were measured after 48 hours of incubation. Then, the IC50's of compound IV in the presence of compound III at an IC10 concentration and of compound III in the presence of compound IV at an IC10 concentration were measured after 48 hours of incubation. After the incubations, […] of 0.1% AlamarBlue in 1×PBS was added to each well. The plates were then incubated for a final 24 h. The plates were read on a microplate reader with an ex/em of 485/528.

[13] = test system: advanced tumors; conditions: patients with advanced tumors; cited from earlier work
[14] = literature; cited from earlier work
[15] = test system: cancer cells versus normal cells; conditions: as reported; cited from earlier work
[16] = test system: topoisomerase II; conditions: compared with doxorubicin; Stepankova et al.; cited from earlier work
[17] = SW872, SW-872 liposarcoma, 48 hours drug, resazurin, mean ±SEM of 3 assays
[18] = RD rhabdomyosarcoma, 48 hours drug, resazurin, mean ±SEM of 3 assays
[19] = GCT histiocytoma, 48 hours drug, resazurin, mean ±SEM of 3 assays
[20] = HeLa cervical adenocarcinoma, 48 hours drug, resazurin, mean ±SEM of 3 assays
[21] = T47D breast ductal carcinoma, 48 hours drug, resazurin, mean ±SEM of 3 assays
[22] = average of SW-872, RD, GCT, HeLa, T47D
[23] = HADF normal human adult dermal fibroblasts, resazurin
[24] = MES-SA uterine fibrosarcoma (sensitive), mean ±SEM of 3 assays
[25] = MES-SA/MX2 uterine fibrosarcoma (resistant), mean ±SEM of 3 assays
[26] = 2.4 mg/kg intraperitoneal three times per week

Row | Compound | IC50 [1, 17] [µM] | IC50 [2, 18] [µM] | IC50 [3, 19] [µM] | IC50 [4, 20] [µM] | IC50 [5, 21] [µM] | times more potent against cancer cells than a normal non-cancer cell line, on average [6] [times] | IC50 [6, 22] [µM] | IC50 [7, 23] [µM] | IC50 [8, 24] [µM] | IC50 [9, 25] [µM] | potency in the resistant fibrosarcoma strain compared to the sensitive strain (times less potent) [9] | Averge tumor weight [11, 26] | tumor weight reduced [11] [%] | tumor progression by in vivo bioluminescent imaging [11] | IC10 ([12]; compound alone, HT1080) [µM] | further results
1 | COc1cccc2c1C(=O)c1c(O)c3c(c(O)c1C2=O)C[C@@](O)(C(=O)CO)C[C@@H]3O[C@H]1C[C@H](N)[C@H](O)[C@H](C)O1 [Compound I, doxorubicin] | 33.7 ± 7.5 | 0.43 ± 0.15 | 0.279 ± 0.036 | 0.605 ± 0.095 | 10.3 ± 7.8 | 2 | 9.06 | 18.9 | 0.55 ± 0.08 | 7.8 ± 1.8 | 14 times | – | – | – | – | –
2 | COc1cccc2c1C(=N)c1c(O)c3c(c(O)c1C2=O)C[C@@](O)(CCO)C[C@@H]3OC1CC(N)C(O)C(C)O1 (stereo partly drawn) [Compound III, 5-imino-13-deoxydoxorubicin] | 7.38 ± 0.45 | 11.9 ± 3.99 | 3.37 ± 0.35 | 9.82 ± 0.93 | 18 | 5.8 | 10.1 | 58.9 | 10.5 ± 1 | 90 | – | 1.40 g | 36 | not significantly reduced | 5.34 | IC50 ([10]; HT1080-luc in vitro, methods of Example 2): 10 ± 6.1 µM; times more potent in the presence of a nontherapeutic amount (IC10) of the other compound [12]: 35 times; IC50 ([12]; Homo sapiens, HT-1080, 48 h, HT1080, read-out: IC50 of compound III in the presence of an IC10 of compound IV): 1.78 µM; IC50 ([12]; Homo sapiens, HT-1080, 48 h, compound alone, HT1080, read-out: IC50): 63.4 µM; IC50 ([12]; compound alone, HT1080, read-out: IC50): 63.7 µM; anticancer activity in Phase I clinical trial [13]: anticancer activity in a variety of carcinomas, sarcomas, and bladder cancer; tolerability in Phase I clinical trial [13]: well tolerated with relatively mild toxicity for an anthracycline
3 | COc1cccc2c1C(=N)c1c(O)c3c(c(O)c1C2=O)C[C@@](O)(CCO)C[C@@H]3OC1CC(N2C=CCC2)C(O)C(C)O1 (stereo partly drawn) [Compound IV, 2-pyrrolino-5-imino-13-deoxydoxorubicin] | – | – | – | – | – | 81 | – | – | – | – | about equal in potency | 1.03* g | 53 | reduced significantly statistically | 0.84 | IC50 ([1]; SW872, 48 h): 0.57 ± 0.23 µM; IC50 ([2]; 48 h): 0.44 ± 0.13 µM; IC50 ([3]; 48 h): 0.175 ± 0.015 µM; IC50 ([4]; HeLa, 48 h): 0.467 ± 0.104 µM; IC50 ([5]; T47D, 48 h): 0.817 ± 0.561 µM; IC50 [6]: 0.49 µM; times more potent than compound I for inhibiting cell growth of cancer cells, on average ([6]; ratio of average IC50 values): 18 times; times more potent than compound III for inhibiting cell growth of cancer cells, on average ([6]; ratio of average IC50 values): 20 times; cytotoxicity against HADF (normal) cells relative to doxorubicin I ([7]; 39.75/18.9): half as cytotoxic; IC50 ([7]; Homo sapiens): 39.8 µM; IC50 ([8]; MES-SA): 0.76 ± 0.16 µM; IC50 ([9]; MES-SA): 0.66 ± 0.003 µM; times more potent than compound I in an anthracycline resistant cell line ([9]; MES-SA/MX2): 12 times; IC50 [10]: 3.51 ± 1.79 µM; tolerability in mice [11, 26]: well tolerated by the mice with no deaths and no overt signs of toxicity; times more potent in the presence of a nontherapeutic amount (IC10) of the other compound ([12]; HT1080, IC50 alone / IC50 in combination): 12 times; IC50 ([12]; Homo sapiens, HT-1080, 48 h, compound alone, HT1080): 12.5 µM; IC50 ([12]; Homo sapiens, HT-1080, 48 h, read-out: IC50 of compound IV in the presence of an IC10 of compound III, HT1080): 1 µM; IC50 ([12]; read-out: IC50 of compound IV in the presence of an IC10 of compound III, HT1080): 1.01 µM
4 | COc1cccc2c1C(=O)c1c(O)c3c(c(O)c1C2=O)C[C@@](O)(C(=O)CO)C[C@@H]3OC1CC(N2C=CCC2)C(O)C(C)O1 (stereo partly drawn) [compound II, 3′-deamino-3′-(2″-pyrroline-1″-yl)doxorubicin] | – | – | – | – | – | – | – | – | – | – | – | – | – | – | – | toxicity relative to doses required for an anticancer effect [14]: toxic or lethal at or below doses that are required for an anticancer effect; selectivity for cancer cells versus normal cells [15]: little or no selectivity; ability of DNA modifications to inhibit catalytic activity of topoisomerase II [16]: does not differ significantly from that of doxorubicin
